Measured values published in patent US20250250240A1, “PHENAZINE COMPOUND FOR MEASURING BACTERIAL EFFLUX” (priority 2022, published 2025).
“Also recorded” adds a separate entry of the source.

Key:
[1] = tested on: AcrAB efflux pump; assay: Bacterial staining (pellet colour) test for AcrAB efflux pump activity; format: cell-based, Escherichia coli; conditions: 1 μg/mL, 15 min
Experimental: The experimental protocol is the same as that described in the previous examples, except for the bacterial strains used. Briefly, compounds 29 and 392 (1 μg/mL) were added to 5 mL of a cell suspension of different E. coli strains (OD=1.5), mixed by tilting and left to stand on the table at room temperature for 15 min. The cells were then centrifuged at 3500 rpm for 10 min and rinsed with potassium phosphate buffer (PBP). The cell pellet was washed only once.

[2] = tested on: NorA efflux pump; assay: Bacterial staining (pellet colour) test for NorA efflux pump activity; format: cell-based, Staphylococcus aureus; conditions: 0.75 μg/mL, 15 min
Experimental: (§1) Bacterial strains: The inventors used the following strains of Staphylococcus aureus: • CIP 76.25, a reference strain producing a basal level of NorA, • SA1199, a reference strain producing a basal level of NorA, • SA 1199B, an overproducer of the NorA pump, and • SA K1758 with the NorA gene deleted, (Kaatz et al., 2003, Antimicrob Agents Chemother. 2003 February; 47(2): 719-26).
(§2) Bacterial staining: Bacteria in exponential growth phase are incubated for 15 min in the presence of compound 053. The bacteria are then washed twice in phosphate buffer and centrifuged, with the pellets observed with the naked eye.
The following protocol was followed: • 1. Grow bacteria on a freshly prepared Muller Hilton-II (MH-II) agar plate. Incubate the Petri dish overnight at 37° C. (Note: Incubation temperature and growth time depend on the bacteria used in the experiment). • 2. The next morning, pick one or two colonies from the overnight plate and inoculate them in an Erlenmeyer flask containing 20 mL MH-II broth. • 3. Incubate the Erlenmeyer on an orbital shaker at 37° C. and 160 rpm for 3-4 hrs. Note: This step allows us to obtain cells in exponential phase, so we need to consider the doubling time of the bacteria used. • 4. After incubation, transfer the cells to a centrifuge tube and centrifuge at 4500 rpm for 10 minutes. Discard supernatant. Add fresh MH-II broth to the centrifuge tube and adjust the optical density of the cells to 0.5. • 5. Transfer an aliquot (5 mL) of cells with adjusted optical density to a new centrifuge tube (50 mL). Add 3.75 μL of compound 053 stock solution (1000 μg/mL) to this tube. Cap the tubes and shake thoroughly to mix the compound. Then keep the centrifuge tube on the table for 15 minutes at room temperature. Note: It is preferable to have a larger surface area to facilitate agitation. The final concentration of 053 used in the experiment is 0.75 μg/mL. […] After 15 minutes contact time, centrifuge the tubes for 10-15 minutes at 4500 rpm to obtain cell pellets and discard supernatant. […]

[3] = tested on: PatA-PatB transporter; assay: Bacterial staining (pellet colour) test on PatA-PatB transporter mutants; format: cell-based, Streptococcus pneumoniae; conditions: 1 μg/mL
Experimental: as §2
(§3) The following protocol was followed: • 1. Grow bacteria on a freshly prepared Muller Hilton-II (MH-II) agar plate. Incubate the Petri dish overnight at 37° C. (Note: Incubation temperature and growth time depend on the bacteria used in the experiment). • 2. The next morning, pick one or two colonies from the overnight plate and inoculate them in an Erlenmeyer flask containing 20 mL MH-II broth. • 3. Incubate the Erlenmeyer on an orbital shaker at 37° C. and 160 rpm for 3-4 hrs. Note: This step allows us to obtain cells in exponential phase, so we need to consider the doubling time of the bacteria used. • 4. After incubation, transfer the cells to a centrifuge tube and centrifuge at 4500 rpm for 10 minutes. Discard supernatant. Add fresh MH-II broth to the centrifuge tube and adjust the optical density of the cells to 0.5. • 5. Transfer an aliquot (5 mL) of cells with adjusted optical density to a new centrifuge tube (50 mL). Add 3.75 μL of compound 053 stock solution (1000 μg/mL) to this tube. Cap the tubes and shake thoroughly to mix the compound. Then keep the centrifuge tube on the table for 15 minutes at room temperature. Note: It is preferable to have a larger surface area to facilitate agitation. […] After 15 minutes contact time, centrifuge the tubes for 10-15 minutes at 4500 rpm to obtain cell pellets and discard supernatant. Using 5 mL of phosphate- or potassium phosphate-buffered saline (PBS, pH7), wash the cell pellets thoroughly (PBS, pH7), repeating this operation twice. Note: Pipette several times with a 5 mL or 1 mL pipette during washing. Make sure there are no lumps during pipetting. The purpose of washing is to remove excess dye from the cell surface. • 7. The color variation in the cells is visible to the naked eye on the cell pellet after the two washes. • a. […]

[4] = tested on: BmrA efflux pump; assay: Fluorescence measurement (spectrofluorimetry) on BmrA efflux pump mutants; format: cell-based, Bacillus subtilis; conditions: pump-free mutant (BmrAΔ)
Experimental: (§4) Fluorescence measurement: Bacteria in exponential growth phase are incubated for 15 min in the presence of compound 053. The optical density at 600 nm is then adjusted to 0.5 and 50 μL is transferred to a black microtiter plate. Fluorescence is read in a Tecan M200 microplate reader.
(§5) Bacterial strains: The inventors used • the reference strain Bacillus subtilis 168 (DSM 402) producing a basal level of BmrA, • Bacillus subtilis BmrA+++ overproducing the BmrA pump and • Bacillus subtilis BmrA Δ with the BmrA gene deleted. • (see Steinfels E et al. Biochemistry 43:7491-7502 and Krügel Het al. FEMS Microbiol Lett. 2010 December; 313(2): 155-63).
(§6) The protocols used are identical to those used in example 2-1.

[5] = target: T1, BmrA efflux pump (Bacillus subtilis, UniProt O06967); assay: as above; format: cell-based
T1 construct: endogenous in cells; host or cells: Bacillus subtilis 168 (DSM 402), BmrA+++ overproducer, BmrA deletion strain
T1 sequence (O06967 whole entry): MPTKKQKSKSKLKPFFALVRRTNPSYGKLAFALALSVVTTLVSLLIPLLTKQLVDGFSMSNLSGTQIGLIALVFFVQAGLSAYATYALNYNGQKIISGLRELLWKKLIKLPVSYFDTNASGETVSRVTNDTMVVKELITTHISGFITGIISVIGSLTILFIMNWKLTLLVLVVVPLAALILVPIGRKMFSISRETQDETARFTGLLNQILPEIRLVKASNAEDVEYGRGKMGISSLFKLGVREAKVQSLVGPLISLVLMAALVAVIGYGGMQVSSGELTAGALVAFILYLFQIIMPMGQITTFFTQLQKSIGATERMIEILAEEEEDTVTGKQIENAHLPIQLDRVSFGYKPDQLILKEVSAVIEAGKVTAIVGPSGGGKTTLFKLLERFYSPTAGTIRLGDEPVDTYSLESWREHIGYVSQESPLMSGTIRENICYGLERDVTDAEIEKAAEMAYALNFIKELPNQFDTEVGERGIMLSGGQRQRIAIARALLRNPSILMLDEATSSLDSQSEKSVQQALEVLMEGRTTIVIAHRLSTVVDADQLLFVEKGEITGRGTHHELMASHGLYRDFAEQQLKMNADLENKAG
Experimental: as §4, §5, §6

[6] = tested on: BmrA efflux pump; assay: Bacterial staining (pellet colour) test on BmrA efflux pump mutants; format: cell-based, Bacillus subtilis; conditions: BmrAΔ (BmrA deleted); 0.75 μg/mL
Experimental: as §2
as §3, with “agitation. The final concentration of 053 used in the experiment is 0.75 μg/mL.” for “agitation.”

[7] = target: T1, BmrA efflux pump; assay: as above; format: cell-based; conditions: 0.75 μg/mL
Experimental: as §2
as §3, with “agitation. The final concentration of 053 used in the experiment is 0.75 μg/mL.” for “agitation.”

[8] = tested on: NorA efflux pump; assay: Relative fluorescence intensity of treated strains fixed with PFA or ethanol; format: cell-based, Staphylococcus aureus; conditions: fixing agent 1% w/v PFA or 70% cold ethanol; CIP 76.25, SA, SA1199B, SA K1758
From the text: (§7) The results are consistent with those obtained previously. […] The inventors also tested the impact that a fixing agent such as 1% w/v paraformaldehyde (PFA) or 70% cold ethanol might have on cells treated with compound 053.

[9] = tested on: NorA efflux pump; assay: Fluorescence reading by flow cytometry of treated bacteria; format: cell-based, Staphylococcus aureus
From the text: The inventors also carried out a fluorescence reading by flow cytometry in order to validate the results previously obtained by spectrofluorimetry. Advantageously, flow cytometry considers only the fluorescence within the cell and not surrounding it, thus enabling direct assessment of the concentration of compound 053 within the cell without the need for rinsing.
as §7

[10] = tested on: NorA efflux pump; assay: Fluorescence measurement (spectrofluorimetry, excitation 530 nm) of treated bacteria; format: cell-based, Staphylococcus aureus
Experimental: as §1, §4

[11] = target: T2, AcrAB efflux pump (Escherichia coli, UniProt P31224); assay: Pellet colour test for AcrAB efflux pump activity in strains pretreated with CCCP; format: cell-based; conditions: 1 μg/mL; cells pretreated 1 hr with CCCP 5 μg/mL; EC, AG100, AG100A versus AG102
T2 construct: strain AG100 is the wild-type strain of E. coli (Wild) also showing normal efflux; endogenous in cells; host or cells: Escherichia coli ATCC11775, AG100 (wild type), AG102 (AcrAB overexpressing), AG100A (acrAB deleted)
T2 sequence (P0AE06 25-397): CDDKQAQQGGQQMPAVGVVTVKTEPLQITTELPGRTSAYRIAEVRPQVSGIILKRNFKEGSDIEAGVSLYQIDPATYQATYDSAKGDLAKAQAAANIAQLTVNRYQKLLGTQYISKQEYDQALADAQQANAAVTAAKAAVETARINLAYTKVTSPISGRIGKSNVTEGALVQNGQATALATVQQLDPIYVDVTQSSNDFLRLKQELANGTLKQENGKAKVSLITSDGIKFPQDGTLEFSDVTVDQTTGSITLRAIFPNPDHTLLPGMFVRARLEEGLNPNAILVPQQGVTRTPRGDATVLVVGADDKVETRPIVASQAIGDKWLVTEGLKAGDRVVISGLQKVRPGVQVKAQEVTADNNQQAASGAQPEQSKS
T2 sequence (P02930 23-493, further chain): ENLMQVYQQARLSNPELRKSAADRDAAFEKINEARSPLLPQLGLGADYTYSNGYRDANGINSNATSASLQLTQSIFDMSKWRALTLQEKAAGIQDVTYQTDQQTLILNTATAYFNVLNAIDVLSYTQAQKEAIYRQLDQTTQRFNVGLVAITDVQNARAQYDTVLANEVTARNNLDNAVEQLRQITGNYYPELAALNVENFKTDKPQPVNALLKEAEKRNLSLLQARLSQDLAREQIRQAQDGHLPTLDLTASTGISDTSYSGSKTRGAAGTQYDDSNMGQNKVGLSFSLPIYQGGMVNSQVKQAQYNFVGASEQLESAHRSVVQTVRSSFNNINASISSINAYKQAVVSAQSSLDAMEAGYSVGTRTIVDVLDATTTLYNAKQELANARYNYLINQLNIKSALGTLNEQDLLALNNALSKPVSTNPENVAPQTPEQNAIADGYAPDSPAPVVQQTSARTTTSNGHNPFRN
T2 sequence (P31224 whole entry): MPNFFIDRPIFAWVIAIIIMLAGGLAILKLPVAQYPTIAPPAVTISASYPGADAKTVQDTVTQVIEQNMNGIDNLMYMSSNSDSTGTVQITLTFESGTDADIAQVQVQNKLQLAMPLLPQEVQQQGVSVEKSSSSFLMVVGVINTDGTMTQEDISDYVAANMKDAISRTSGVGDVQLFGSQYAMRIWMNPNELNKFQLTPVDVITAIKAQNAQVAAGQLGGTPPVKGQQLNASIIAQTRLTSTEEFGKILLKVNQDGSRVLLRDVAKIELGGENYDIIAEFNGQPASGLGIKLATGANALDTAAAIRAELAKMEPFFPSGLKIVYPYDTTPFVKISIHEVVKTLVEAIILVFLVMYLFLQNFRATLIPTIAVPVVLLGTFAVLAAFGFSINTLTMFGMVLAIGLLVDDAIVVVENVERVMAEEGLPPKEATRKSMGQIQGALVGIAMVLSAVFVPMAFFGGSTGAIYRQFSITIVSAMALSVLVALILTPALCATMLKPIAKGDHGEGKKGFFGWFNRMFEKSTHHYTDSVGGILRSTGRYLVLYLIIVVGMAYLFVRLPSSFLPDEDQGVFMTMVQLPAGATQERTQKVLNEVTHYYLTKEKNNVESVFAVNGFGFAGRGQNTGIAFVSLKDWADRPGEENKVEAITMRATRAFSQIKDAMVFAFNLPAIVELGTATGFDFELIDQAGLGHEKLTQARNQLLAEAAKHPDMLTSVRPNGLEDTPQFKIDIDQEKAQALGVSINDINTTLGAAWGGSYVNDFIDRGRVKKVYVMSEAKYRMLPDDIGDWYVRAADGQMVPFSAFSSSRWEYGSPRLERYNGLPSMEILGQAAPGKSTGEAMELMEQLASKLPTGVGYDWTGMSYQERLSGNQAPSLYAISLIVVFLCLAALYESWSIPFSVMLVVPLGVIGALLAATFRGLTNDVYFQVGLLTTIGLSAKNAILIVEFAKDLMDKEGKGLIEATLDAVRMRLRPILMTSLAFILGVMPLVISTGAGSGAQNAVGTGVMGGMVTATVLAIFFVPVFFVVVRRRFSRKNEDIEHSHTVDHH
Experimental: The inventors also tested compound 053 (1 μg/mL) on the same Escherichia coli strains with varying levels of AcrAB efflux pump expression. The protocol was slightly modified to introduce a pre-treatment step with Carbonyl Cyanide m-Chlorophenylhydrazone (CCCP). CCCP is a chemical inhibitor of oxidative phosphorylation. It interferes with the transmembrane electrochemical gradient and proton-motive force, and consequently reduces ATP production. The effect of CCCP is to reduce the efficiency of efflux pumps, making it easier to perceive differences in staining between different strains.
The experimental protocol is the same as that described in the examples, with the difference that cells are treated for 1 hr with CCCP (5 μg/mL) in phosphate buffer (PPB). After CCP treatment, the whole experiment is run in PPB instead of MH-II broth from step 4 onwards.

[12] = strain AG100 (wild-type), normal efflux
[13] = strain AG102 (AcrAB overexpression)
[14] = strain EC (ATCC11775), normal efflux
[15] = strain SA 1199B (NorA overproducer)

In the case of CCCCCCCC[n+]1c2cc(NCCCC)ccc2nc2cc(NCCOC)c(N)cc21 [compound 392], the “staining of bacteria (pellet colour)” value [1, 12] is reported as “very pale pink”, the “staining of bacteria (pellet colour)” value ([1]; strain AG100A (acrAB deleted)) is reported as “dark pink stain” and the “staining of bacteria (pellet colour)” value [1, 13] is reported as “unstained”. The “staining of bacteria (pellet colour)” value [1, 14] was “very pale pink”.

CCCCNc1ccc2nc3cc(NCCC)c(N)cc3[n+](CCCC)c2c1 [compound 29] was tested, and the “staining of bacteria (pellet colour)” value [1, 12] was “very pale pink”, the “staining of bacteria (pellet colour)” value ([1]; strain AG100A (acrAB deleted)) was “dark pink stain” and the “staining of bacteria (pellet colour)” value [1, 13] was “unstained”. The “staining of bacteria (pellet colour)” value [1, 14] was “very pale pink”.

For CCCCNc1ccc2nc3cc(NCCOC)c(N)cc3[n+](CCC)c2c1 [compound 053], the “colour of bacterial pellet” value ([2]; strain CIP 76.25 (reference, basal NorA)) was “Intermediate colors; also recorded: intermediate pale pink”, the “colour of bacterial pellet” value [2, 15] was “No coloration; also recorded: white/off-white” and the “colour of bacterial pellet” value ([2]; strain SA K1758 (NorA deleted)) was “bright dark pink”. The “colour of bacterial pellet” value ([3]; DEL strain (PatA-PatB deleted)) was “dark pink”, the “colour of bacterial pellet” value ([3]; OVP strain (overexpressing PatA-PatB)) was “white” and the “colour of bacterial pellet” value ([3]; WT strain (basal PatA-PatB)) was “dark pink”. For the same compound, the “fluorescence of treated bacteria” value [4] was “very high”, the “fluorescence of treated bacteria” value ([5]; overproducing strain (BmrA+++)) was “almost nil” and the “fluorescence of treated bacteria” value ([5]; wild-type strain (DSM 402)) was “intermediate levels of fluorescence”. For the same compound, the “colour of bacterial pellet” value [6] was “dark pink”, the “colour of bacterial pellet” value ([7]; BmrA+++ (overexpressing BmrA)) was “white; also recorded: No coloration” and the “colour of bacterial pellet” value ([7]; wild-type B. subtilis 168 (DSM 402)) was “Intermediate pale pink”. For the same compound, the “efflux differential between strains after fixation” value [8] was “efflux differential between the different strains remains visible”, the “accumulation in cells (fluorescence intensity by flow cytometry)” value (“accumulation in cells” for short) ([9]; NorA-overexpressing strain SA1199B) was “accumulated very little” and the “accumulation in cells” value ([9]; norA-deleted strain SA K1758) was “accumulated heavily”. For the same compound, the “accumulation in cells” value ([9]; reference strain SA) was “accumulated moderately”, the “accumulation in cells” value ([9]; wild-type strain CIP 76.25) was “accumulated moderately” and the “fluorescence of treated bacteria” value ([10]; strain CIP 76.25 (low NorA level)) was “intermediate levels of fluorescence”. The “fluorescence of treated bacteria” value ([10]; strain SA 1199 (low NorA level)) was “intermediate levels of fluorescence”, the “fluorescence of treated bacteria” value [10, 15] was “almost nil” and the “fluorescence of treated bacteria” value ([10]; strain SA K1758 (NorA pump-free mutant)) was “high fluorescence”. The “visual distinction of strains by pellet staining” value [11] was “visually possible to distinguish”.
